Square brackets hold non-standard residues; d marks the D form. Peptide text beside a SMILES is read from it. dNle = CCCC[C@@H](N)C(=O)O; Nle = CCCC[C@H](N)C(=O)O; Nva = CCC[C@H](N)C(=O)O
Tested on: secretion of ACTH stimulated by oCRF in cultured rat pituitary cells
Assay: Blocking of oCRF-stimulated ACTH and β-endorphin secretion by cultured rat pituitary cells
Type: cell-based
Settings: for inhibition of the secretion of ACTH and β-END-LI: result in words; for potency compared to AHC(9-41) in blocking by 50% the secretion of ACTH: ACTH secretion stimulated by a 1 nM dose of oCRF, AHC(9-41) = reference
Experimental: The effectiveness of synthetic CRF antagonists to block the secretion of ACTH and β-endorphin by cultured rat pituitary cells is measured using the procedure as generally set forth in Vale et al., Endocrinology, 91, 562 (1972).

Row | Compound | inhibition of the secretion of ACTH and β-END-LI | potency compared to AHC(9-41) in blocking by 50% the secretion of ACTH
1 | CCCC[C@H](NC(=O)[C@H](CC(C)C)NC(=O)[C@H](CC(C)C)NC(=O)[C@H](CCCNC(=N)N)NC(=O)[C@H](CC(N)=O)NC(=O)[C@H](CC(N)=O)NC(=O)[C@H](C)NC(=O)[C@H](C)NC(=O)[C@H](CCC(N)=O)NC(=O)[C@H](CCC(N)=O)NC(=O)[C@H](CCCCN)NC(=O)[C@@H](NC(=O)[C@H](CCCCN)NC(=O)[C@H](CCC(=O)O)NC(=O)[C@H](CCC(N)=O)NC(=O)[C@H](CCCCN)NC(=O)[C@H](CCC(=O)O)NC(=O)[C@@H](NC(=O)[C@H](CCC(=O)O)NC(=O)[C@@H](NC(=O)[C@H](CCSC)NC(=O)[C@H](CCCCN)NC(=O)[C@H](CCCNC(=N)N)NC(=O)[C@H](CC(C)C)NC(=O)[C@H](CC(C)C)NC(=O)[C@H](CCC(=O)O)NC(=O)[C@@H](N)CC(C)C)C(C)C)C(C)C)[C@@H](C)CC)C(=O)N[C@@H](CC(=O)O)C(=O)N[C@H](C(=O)NCC(N)=O)[C@@H](C)O [XVIII, [Val^18,20, Ile^26, Nle^37, Gly^40]-sauvagine(11-40)] (H-LELLRKMVEVEKQEKIKQQAANNRLL[Nle]DTG-NH2) | inhibits the secretion of ACTH and β-END-LI | –
2 | CCCC[C@H](NC(=O)[C@H](CCC(=O)O)NC(=O)[C@H](CC(C)C)NC(=O)[C@H](CCSC)NC(=O)[C@H](CCC(=O)O)NC(=O)[C@H](CCCNC(=N)N)NC(=O)[C@H](CC(C)C)NC(=O)[C@H](CC(C)C)NC(=O)[C@H](Cc1c[nH]cn1)NC(=O)[C@H](N)Cc1ccccc1)C(=O)N[C@@H](C)C(=O)N[C@@H](CCCCN)C(=O)N[C@@H](C)C(=O)N[C@@H](CCC(=O)O)C(=O)N[C@@H](CCC(N)=O)C(=O)N[C@@H](CCSC)C(=O)N[C@@H](C)C(=O)N[C@@H](CCC(=O)O)C(=O)N[C@@H](CCC(N)=O)C(=O)N[C@@H](C)C(=O)N[C@@H](C)C(=O)N[C@@H](CC(C)C)C(=O)N[C@@H](CC(N)=O)C(=O)N[C@@H](CCCNC(=N)N)C(=O)N[C@@H](CC(C)C)C(=O)N[C@@H](CC(C)C)C(=O)N[C@@H](CCCC)C(=O)N[C@@H](CCC(=O)O)C(=O)N[C@@H](CCC(=O)O)C(=O)N[C@@H](C)C(N)=O [XXI, [D-Phe^12, Met^27, Nle^21,38]-AHC (12-41)] (H-[dF]HLLREMLE[Nle]AKAEQMAEQAALNRLL[Nle]EEA-NH2) | inhibits the secretion of ACTH and β-END-LI | –
3 | CCCC[C@H](NC(=O)[C@H](CC(C)C)NC(=O)[C@H](CC(C)C)NC(=O)[C@H](CCCNC(=N)N)NC(=O)[C@H](CC(N)=O)NC(=O)[C@H](CC(C)C)NC(=O)[C@H](C)NC(=O)[C@H](C)NC(=O)[C@H](CCC(N)=O)NC(=O)[C@H](CCC(=O)O)NC(=O)[C@H](C)NC(=O)[C@H](C)NC(=O)[C@H](CCC(N)=O)NC(=O)[C@H](CCC(=O)O)NC(=O)[C@H](C)NC(=O)[C@H](CCCCN)NC(=O)[C@H](C)NC(=O)[C@H](CC(C)C)NC(=O)[C@H](CCC(=O)O)NC(=O)[C@H](CC(C)C)NC(=O)[C@H](CCCC)NC(=O)[C@H](CCC(=O)O)NC(=O)[C@H](CCCNC(=N)N)NC(=O)[C@H](CC(C)C)NC(=O)[C@H](CC(C)C)NC(=O)[C@H](Cc1c[nH]cn1)NC(=O)[C@@H](N)Cc1ccccc1)C(=O)N[C@@H](CCC(=O)O)C(=O)N[C@@H](CCC(=O)O)C(=O)N[C@@H](C)C(N)=O [XXII, [Nle^18,38, Leu^21, Ala^27]-AHC (12-41)] (H-FHLLRE[Nle]LELAKAEQAAEQAALNRLL[Nle]EEA-NH2) | inhibits the secretion of ACTH and β-END-LI | –
4 | CCCC[C@H](NC(=O)[C@H](CC(C)C)NC(=O)[C@H](CC(C)C)NC(=O)[C@H](CCCNC(=N)N)NC(=O)[C@H](CC(N)=O)NC(=O)[C@H](CC(C)C)NC(=O)[C@H](C)NC(=O)[C@H](C)NC(=O)[C@H](CCC(N)=O)NC(=O)[C@H](CCC(=O)O)NC(=O)[C@H](C)NC(=O)[C@H](CCC(=O)O)NC(=O)[C@H](CCCCN)NC(=O)[C@H](CCC(=O)O)NC(=O)[C@H](C)NC(=O)[C@H](CCCCN)NC(=O)[C@H](CCC(=O)O)NC(=O)[C@H](CCSC)NC(=O)[C@H](CCC(=O)O)NC(=O)[C@H](CC(C)C)NC(=O)[C@H](CCSC)NC(=O)[C@H](CCC(=O)O)NC(=O)[C@H](CCCNC(=N)N)NC(=O)[C@H](CC(C)C)NC(=O)[C@H](CC(C)C)NC(=O)[C@H](CCC(=O)O)NC(=O)[C@@H](N)CC(C)C)C(=O)N[C@@H](CCC(=O)O)C(=O)N[C@@H](CCC(=O)O)C(=O)N[C@@H](C)C(N)=O [XXIII, [Leu^12, Glu^13,22, Lys^26, Nle^38]-AHC (12-41)] (H-LELLREMLEMEKAEKEAEQAALNRLL[Nle]EEA-NH2) | inhibits the secretion of ACTH and β-END-LI | –
5 | CCCC[C@H](NC(=O)[C@H](CC(C)C)NC(=O)[C@H](CC(C)C)NC(=O)[C@H](CCCNC(=N)N)NC(=O)[C@H](CC(N)=O)NC(=O)[C@H](C)NC(=O)[C@H](C)NC(=O)[C@H](C)NC(=O)[C@H](CCC(N)=O)NC(=O)[C@H](CCC(=O)O)NC(=O)[C@H](C)NC(=O)[C@H](CCC(=O)O)NC(=O)[C@H](CCC(N)=O)NC(=O)[C@H](CCC(=O)O)NC(=O)[C@H](C)NC(=O)[C@H](CCCCN)NC(=O)[C@H](C)NC(=O)[C@H](CCSC)NC(=O)[C@H](CCC(=O)O)NC(=O)[C@H](CC(C)C)NC(=O)[C@H](CCSC)NC(=O)[C@H](CCC(=O)O)NC(=O)[C@H](CCCNC(=N)N)NC(=O)[C@H](CC(C)C)NC(=O)[C@H](CC(C)C)NC(=O)[C@H](CCC(=O)O)NC(=O)[C@H](N)CC(C)C)C(=O)N[C@@H](CCC(=O)O)C(=O)N[C@@H](CCC(=O)O)C(=O)N[C@@H](C)C(N)=O [XXV, [D-Leu^12, Glu^13, Ala^33, Nle^38]-AHC (12-41)] (H-[dL]ELLREMLEMAKAEQEAEQAAANRLL[Nle]EEA-NH2) | inhibits the secretion of ACTH and β-END-LI | –
6 | CCCC[C@@H](N)C(=O)N[C@@H](Cc1c[nH]cn1)C(=O)N[C@@H](CC(C)C)C(=O)N[C@@H](CC(C)C)C(=O)N[C@@H](CCCNC(=N)N)C(=O)N[C@@H](CCC(=O)O)C(=O)N[C@@H](CCCC)C(=O)N[C@@H](CC(N)=O)C(=O)N[C@@H](CCC(=O)O)C(=O)N[C@@H](CCCC)C(=O)N[C@@H](CC(=O)O)C(=O)N[C@@H](CCCCN)C(=O)N[C@@H](C)C(=O)N[C@@H](CCC(=O)O)C(=O)N[C@@H](CCC(N)=O)C(=O)N[C@@H](Cc1ccccc1)C(=O)N[C@@H](C)C(=O)N[C@@H](CCC(=O)O)C(=O)N[C@@H](CCC(N)=O)C(=O)N[C@@H](C)C(=O)N[C@@H](C)C(=O)N[C@@H](CC(C)C)C(=O)N[C@@H](CC(N)=O)C(=O)N[C@@H](CCCNC(=N)N)C(=O)N[C@@H](CC(C)C)C(=O)N[C@@H](CC(C)C)C(=O)N[C@@H](CCCC)C(=O)N[C@@H](CCC(=O)O)C(=O)N[C@@H](CCC(=O)O)C(=O)N[C@@H](C)C(N)=O [XXVII, [D-Nle^12, Nle^18,21,38, Asn^19, Asp^22, Phe^27]-AHC(12-41)] (H-[dNle]HLLRE[Nle]NE[Nle]DKAEQFAEQAALNRLL[Nle]EEA-NH2) | inhibits the secretion of ACTH and β-END-LI | –
7 | CCCC[C@H](NC(=O)[C@H](CCCCN)NC(=O)[C@H](C)NC(=O)[C@H](CCSC)NC(=O)[C@H](CCC(=O)O)NC(=O)[C@H](C)NC(=O)[C@@H](NC(=O)[C@H](CCC(=O)O)NC(=O)[C@H](CCCNC(=N)N)NC(=O)[C@H](CC(C)C)NC(=O)[C@H](CC(C)C)NC(=O)[C@H](Cc1c[nH]cn1)NC(=O)[C@H](N)Cc1ccc(O)cc1)C(C)C)C(=O)N[C@@H](CCC(=O)O)C(=O)N[C@@H](CCC(N)=O)C(=O)N[C@@H](CCC)C(=O)N[C@@H](C)C(=O)N[C@@H](CCC(N)=O)C(=O)N[C@@H](CCC(N)=O)C(=O)N[C@@H](C)C(=O)N[C@@H](Cc1c[nH]cn1)C(=O)N[C@@H](CO)C(=O)N[C@@H](CC(N)=O)C(=O)N[C@@H](CCCNC(=N)N)C(=O)N[C@@H](CCCCN)C(=O)N[C@@H](CC(C)C)C(=O)N[C@@H](CCCC)C(=O)N[C@@H](CCC(=O)O)C(=O)N[C@@H](CCCC)C(=O)N[C@H](C(N)=O)[C@@H](C)CC [XXX, [D-Tyr^12, Ala^19, Lys^23, Nle^24,38,40 Nva^27,]-hCRF(12-41)] (H-[dY]HLLREVAEMAK[Nle]EQ[Nva]AQQAHSNRKL[Nle]E[Nle]I-NH2) | inhibits the secretion of ACTH and β-END-LI | –
8 | [4ClD-Phe^12, Nle^18,21,38 ]-AHC(9-41) [XX] | inhibits the secretion of ACTH and β-END-LI | –
9 | [4FD-Phe^12, CML^14,15,19,27,33,37, CMA^22,32,41, Nle^38 ]-AHC(12-41) [XIX] | inhibits the secretion of ACTH and β-END-LI | –
10 | [CML^14,19,27,36, Nle^38 ]-AHC(12-41) [XXVI] | inhibits the secretion of ACTH and β-END-LI | –
11 | [D-2Nal^12, Nle^21,38 ]-hCRF(12-41) [X] | inhibits the secretion of ACTH and β-END-LI | about 9 times as potent as AHC(9-41)
12 | [D-Val^12, Nle^21,38, Ile^24,27, Nva^41 ]-hCRF(11-41) [XXVIII] | inhibits the secretion of ACTH and β-END-LI | –
13 | [Nle^21,38, Arg^37 ]-hCRF(12-41) [IX] | inhibits the secretion of ACTH and β-END-LI | more than 6 times as potent as AHC(9-41)

— patent US5109111A, “CRF antagonists” (The Salk Institute for Biological Studies, priority 1990, dated 1992)
